From patent US12679843B2, “Pyrrolopyrimidine amines as complement inhibitors” (BioCryst Pharmaceuticals, Inc., priority 2020, dated 2026)

Each molecule was assayed against Factor D (Homo sapiens, UniProt P00746) (assay: Factor D esterolytic assay (Z-Lys-SBzl thioester substrate, DTNB, 405 nm)). Details: substrate Z-Lys-SBzl 1.29 mM, 100 mM HEPES, 500 mM NaCl, pH 7.5, 10% DMSO, tested a minimum of three times.
Format: biochemical
How it was run: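 Human Factor D hydrolysis of Z-Lys-SBzl (1.29 mM) monitored at 405 nm via DTNB thiol detection for 600 s, 690 nm background subtracted. Buffer 100 mM HEPES, 500 mM NaCl, pH 7.5, 10% DMSO; substrate added immediately or after room-temperature preincubation. IC50 from percent inhibition of rate, at least three tests.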

Sequence of Factor D (P00746 26-253): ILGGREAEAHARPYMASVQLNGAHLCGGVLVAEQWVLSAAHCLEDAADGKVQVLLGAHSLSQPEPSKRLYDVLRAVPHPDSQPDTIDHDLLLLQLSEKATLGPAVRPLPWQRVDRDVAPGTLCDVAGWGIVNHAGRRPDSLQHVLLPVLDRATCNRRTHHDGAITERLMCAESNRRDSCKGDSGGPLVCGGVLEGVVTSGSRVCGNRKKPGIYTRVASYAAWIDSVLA

`C[C@@]12C[C@@H](C(=O)Nc3cccc(Br)n3)N(C(=O)Cn3c4ncccc4c4c(N)ncnc43)[C@@H]1C2` [Compound 183a, (1R,3S,5R)-2-(2-(4-amino-9H-pyrido[3′,2′:4,5]pyrrolo[2,3-d]pyrimidin-9-yl)acetyl)-N-(6-bromopyridin-2-yl)-5-methyl-2-azabicyclo[3.1.0]hexane-3-carboxamide] and `C[C@@]12C[C@@H](C(=O)Nc3cccc(Br)n3)N(C(=O)Cn3c4ncnc(N)c4c4cccc(Br)c43)[C@@H]1C2` [Compound 186a, (1R,3S,5R)-2-(2-(4-amino-8-bromo-9H-pyrimido[4,5-b]indol-9-yl)acetyl)-N-(6-bromopyridin-2-yl)-5-methyl-2-azabicyclo[3.1.0]hexane-3-carboxamide] cannot be ordered by IC50: under 100 nM for the first, under 100 nM for the second.

`Cc1cc(C(F)(F)F)cc2c3c(N)ncnc3n(CC(=O)N3[C@H](C(=O)Nc4cccc(Br)n4)C[C@@]4(C)C[C@@H]34)c12` [Compound 184g, (1R,3S,5R)-2-(2-(4-amino-8-methyl-6-(trifluoromethyl)-9H-pyrimido[4,5-b]indol-9-yl)acetyl)-N-(6-bromopyridin-2-yl)-5-methyl-2-azabicyclo[3.1.0]hexane-3-carboxamide] and `Cc1cc(C)c2c(c1)c1c(N)ncnc1n2CC(=O)N1[C@H](C(=O)Nc2cccc(Br)n2)C[C@@]2(C)C[C@@H]12` [Compound 191a, (1R,3S,5R)-2-(2-(4-amino-6,8-dimethyl-9H-pyrimido[4,5-b]indol-9-yl)acetyl)-N-(6-bromopyridin-2-yl)-5-methyl-2-azabicyclo[3.1.0]hexane-3-carboxamide] cannot be ordered by IC50: under 100 nM for the first, under 100 nM for the second.

`CC(=O)Nc1ccc2c(c1)c1c(N)ncnc1n2CC(=O)N1[C@H](C(=O)Nc2cccc(Br)n2)C[C@@]2(C)C[C@@H]12` [Compound 185a, (1R,3S,5R)-2-(2-(6-acetamido-4-amino-9H-pyrimido[4,5-b]indol-9-yl)acetyl)-N-(6-bromopyridin-2-yl)-5-methyl-2-azabicyclo[3.1.0]hexane-3-carboxamide] and `CNC(=O)c1ccc2c(c1)c1c(N)ncnc1n2CC(=O)N1[C@H](C(=O)Nc2cccc(Br)n2)C[C@@]2(C)C[C@@H]12` [Compound 196d, 4-amino-9-(2-((1R,3S,5R)-3-((6-bromopyridin-2-yl)carbamoyl)-5-methyl-2-azabicyclo[3.1.0]hexan-2-yl)-2-oxoethyl)-N-methyl-9H-pyrimido[4,5-b]indole-6-carboxamide] cannot be ordered by IC50: under 100 nM for the first, under 100 nM for the second.

`CCc1ccc2c(c1)c1c(N)ncnc1n2CC(=O)N1[C@@H]2C[C@@H]2C[C@H]1C(=O)Nc1cccc(Br)n1` [Compound 187c, (1R,3S,5R)-2-(2-(4-amino-6-ethyl-9H-pyrimido[4,5-b]indol-9-yl)acetyl)-N-(6-bromopyridin-2-yl)-2-azabicyclo[3.1.0]hexane-3-carboxamide] and `Nc1ncnc2c1c1cc(CO)ccc1n2CC(=O)N1[C@@H]2C[C@@H]2C[C@H]1C(=O)Nc1cccc(Br)n1` [Compound 195e, (1R,3S,5R)-2-(2-(4-amino-6-(hydroxymethyl)-9H-pyrimido[4,5-b]indol-9-yl)acetyl)-N-(6-bromopyridin-2-yl)-2-azabicyclo[3.1.0]hexane-3-carboxamide] cannot be ordered by IC50: under 100 nM for the first, under 100 nM for the second.

`Nc1ncnc2c1c1cc([N+](=O)[O-])ccc1n2CC(=O)N1[C@@H]2C[C@@H]2C[C@H]1C(=O)Nc1cccc(Br)n1` [Compound 188g, (1R,3S,5R)-2-(2-(4-amino-6-nitro-9H-pyrimido[4,5-b]indol-9-yl)acetyl)-N-(6-bromopyridin-2-yl)-2-azabicyclo[3.1.0]hexane-3-carboxamide] and `CNC(=O)c1ccc2c(c1)c1c(N)ncnc1n2CC(=O)N1[C@@H]2C[C@@H]2C[C@H]1C(=O)Nc1cccc(Br)n1` [Compound 204a, 4-amino-9-(2-((1R,3S,5R)-3-((6-bromopyridin-2-yl)carbamoyl)-2-azabicyclo[3.1.0]hexan-2-yl)-2-oxoethyl)-N-methyl-9H-pyrimido[4,5-b]indole-6-carboxamide] cannot be ordered by IC50: under 100 nM for the first, under 100 nM for the second.

`Cc1cc(C)c2c(c1)c1c(N)ncnc1n2CC(=O)N1[C@@H]2C[C@@H]2C[C@H]1C(=O)Nc1cccc(Br)n1` [Compound 189g, (1R,3S,5R)-2-(2-(4-amino-6,8-dimethyl-9H-pyrimido[4,5-b]indol-9-yl)acetyl)-N-(6-bromopyridin-2-yl)-2-azabicyclo[3.1.0]hexane-3-carboxamide] and `Cc1cc(Br)cc2c3c(N)ncnc3n(CC(=O)N3[C@@H]4C[C@@H]4C[C@H]3C(=O)Nc3cccc(Br)n3)c12` [Compound 192g, (1R,3S,5R)-2-(2-(4-amino-6-bromo-8-methyl-9H-pyrimido[4,5-b]indol-9-yl)acetyl)-N-(6-bromopyridin-2-yl)-2-azabicyclo[3.1.0]hexane-3-carboxamide] cannot be ordered by IC50: under 100 nM for the first, under 100 nM for the second.

`CCOC(=O)CCc1ccc2c(c1)c1c(N)ncnc1n2CC(=O)N1[C@H](C(=O)Nc2cccc(Br)n2)C[C@@]2(C)C[C@@H]12` [Compound 190a, ethyl 3-(4-amino-9-(2-((1R,3S,5R)-3-((6-bromopyridin-2-yl)carbamoyl)-5-methyl-2-azabicyclo[3.1.0]hexan-2-yl)-2-oxoethyl)-9H-pyrimido[4,5-b]indol-6-yl)propanoate] and `C[C@@]12C[C@@H](C(=O)Nc3cccc(Br)n3)N(C(=O)Cn3c4ccc(C(N)=O)cc4c4c(N)ncnc43)[C@@H]1C2` [Compound 203a, 4-amino-9-(2-((1R,3S,5R)-3-((6-bromopyridin-2-yl)carbamoyl)-5-methyl-2-azabicyclo[3.1.0]hexan-2-yl)-2-oxoethyl)-9H-pyrimido[4,5-b]indole-6-carboxamide] cannot be ordered by IC50: under 100 nM for the first, under 100 nM for the second.

`Cc1cc(Br)cc2c3c(N)ncnc3n(CC(=O)N3[C@H](C(=O)Nc4cccc(Br)n4)C[C@@]4(C)C[C@@H]34)c12` [Compound 193a, (1R,3S,5R)-2-(2-(4-amino-6-bromo-8-methyl-9H-pyrimido[4,5-b]indol-9-yl)acetyl)-N-(6-bromopyridin-2-yl)-5-methyl-2-azabicyclo[3.1.0]hexane-3-carboxamide] and `C[C@@]12C[C@@H](C(=O)Nc3cccc(Br)n3)N(C(=O)Cn3c4cc(Br)ccc4c4c(N)ncnc43)[C@@H]1C2` [Compound 200a, (1R,3S,5R)-2-(2-(4-amino-7-bromo-9H-pyrimido[4,5-b]indol-9-yl)acetyl)-N-(6-bromopyridin-2-yl)-5-methyl-2-azabicyclo[3.1.0]hexane-3-carboxamide] cannot be ordered by IC50: under 100 nM for the first, under 100 nM for the second.

First: Cc1cc(C(F)(F)F)cc2c3c(N)ncnc3n(CC(=O)N3[C@@H]4C[C@@H]4C[C@H]3C(=O)Nc3cccc(Br)n3)c12 [Compound 194a, (1R,3S,5R)-2-(2-(4-amino-8-methyl-6-(trifluoromethyl)-9H-pyrimido[4,5-b]indol-9-yl)acetyl)-N-(6-bromopyridin-2-yl)-2-azabicyclo[3.1.0]hexane-3-carboxamide]
Second: C[C@@H]1C[C@@H](C(=O)Nc2cccc(Br)n2)N(C(=O)Cn2c3ccc(C(F)(F)F)cc3c3c(N)ncnc32)C1 [Compound 206c, (2S,4R)-1-(2-(4-amino-6-(trifluoromethyl)-9H-pyrimido[4,5-b]indol-9-yl)acetyl)-N-(6-bromopyridin-2-yl)-4-methylpyrrolidine-2-carboxamide]
The IC50 of the first is lower: under 100 nM for the first, 100 to 1000 nM for the second. The first is the more potent here.

`Cc1ccccc1-c1ccc2c(c1)c1c(N)ncnc1n2CC(=O)N1[C@@H]2C[C@@H]2C[C@H]1C(=O)Nc1cccc(Br)n1` [Compound 197c, (1R,3S,5R)-2-(2-(4-amino-6-(o-tolyl)-9H-pyrimido[4,5-b]indol-9-yl)acetyl)-N-(6-bromopyridin-2-yl)-2-azabicyclo[3.1.0]hexane-3-carboxamide] and `Cc1ccc(-c2ccc3c(c2)c2c(N)ncnc2n3CC(=O)N2[C@@H]3C[C@@H]3C[C@H]2C(=O)Nc2cccc(Br)n2)cc1` [Compound 205c, (1R,3S,5R)-2-(2-(4-amino-6-(p-tolyl)-9H-pyrimido[4,5-b]indol-9-yl)acetyl)-N-(6-bromopyridin-2-yl)-2-azabicyclo[3.1.0]hexane-3-carboxamide] cannot be ordered by IC50: under 100 nM for the first, under 100 nM for the second.

`C[C@@]12C[C@@H](C(=O)Nc3cccc(Br)n3)N(C(=O)Cn3c4ncnc(N)c4c4cccc(F)c43)[C@@H]1C2` [Compound 198a, (1R,3S,5R)-2-(2-(4-amino-8-fluoro-9H-pyrimido[4,5-b]indol-9-yl)acetyl)-N-(6-bromopyridin-2-yl)-5-methyl-2-azabicyclo[3.1.0]hexane-3-carboxamide] and `C[C@@]12C[C@@H](C(=O)Nc3cccc(Br)n3)N(C(=O)Cn3c4cc(C(F)(F)F)ccc4c4c(N)ncnc43)[C@@H]1C2` [Compound 199a, (1R,3S,5R)-2-(2-(4-amino-7-(trifluoromethyl)-9H-pyrimido[4,5-b]indol-9-yl)acetyl)-N-(6-bromopyridin-2-yl)-5-methyl-2-azabicyclo[3.1.0]hexane-3-carboxamide] cannot be ordered by IC50: under 100 nM for the first, under 100 nM for the second.

First: Nc1ncnc2c1c1cc(C(F)(F)F)ccc1n2CC(=O)N1C[C@H](N)C[C@H]1C(=O)Nc1cccc(Br)n1 [Compound 201e, (2S,4R)-4-amino-1-(2-(4-amino-6-(trifluoromethyl)-9H-pyrimido[4,5-b]indol-9-yl)acetyl)-N-(6-bromopyridin-2-yl)pyrrolidine-2-carboxamide]
Second: C[C@@]1(F)C[C@@H](C(=O)Nc2cccc(Br)n2)N(C(=O)Cn2c3ccc(C(F)(F)F)cc3c3c(N)ncnc32)C1 [Compound 207b, (2S,4R)-1-(2-(4-amino-6-(trifluoromethyl)-9H-pyrimido[4,5-b]indol-9-yl)acetyl)-N-(6-bromopyridin-2-yl)-4-fluoro-4-methylpyrrolidine-2-carboxamide]
The IC50 of the first is higher: 100 to 1000 nM for the first, under 100 nM for the second. The second is the more potent here.

With `C[C@@]12C[C@@H](C(=O)Nc3cccc(Br)n3)N(C(=O)Cn3c4ccc([N+](=O)[O-])cc4c4c(N)ncnc43)[C@@H]1C2` [Compound 202a, (1R,3S,5R)-2-(2-(4-amino-6-nitro-9H-pyrimido[4,5-b]indol-9-yl)acetyl)-N-(6-bromopyridin-2-yl)-5-methyl-2-azabicyclo[3.1.0]hexane-3-carboxamide] the IC50 was under 100 nM.
